Test [1] has as its target T1, recombinant human B1 receptors (Homo sapiens, UniProt P46663).
T1 construct: host or cells: CHO (CHO-B1)
T1 sequence (P46663 1-353): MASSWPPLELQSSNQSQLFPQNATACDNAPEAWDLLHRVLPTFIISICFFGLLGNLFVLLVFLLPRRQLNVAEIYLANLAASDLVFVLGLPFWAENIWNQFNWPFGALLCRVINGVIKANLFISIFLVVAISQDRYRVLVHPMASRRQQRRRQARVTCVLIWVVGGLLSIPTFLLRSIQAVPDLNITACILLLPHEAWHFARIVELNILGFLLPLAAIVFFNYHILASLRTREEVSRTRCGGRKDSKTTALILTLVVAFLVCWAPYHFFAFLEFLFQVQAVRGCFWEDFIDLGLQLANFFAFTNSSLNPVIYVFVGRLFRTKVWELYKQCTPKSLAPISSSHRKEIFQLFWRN
Nature of the test: Functional assay: antagonist potency by cytosolic calcium measurement (plate reader fluorimeter) in CHO-B1 cells, agonist LysDABK. Type of test: cell-based. The conditions noted are these: CHO-B1 cells, inhibition of LysDABK (EC80)-evoked [Ca2+]i elevation; read-out: B1 func. The procedure: Assessment of Antagonist Potency at B1 Receptors In Vitro by Measurement of Cytosolic Calcium Ion Concentration with a Plate Reader Fluorimeter in Cells Expressing Recombinant Human B1 Receptors
Chinese hamster ovary (CHO) cells stably expressing recombinant human B1 (CHO-B1, Euroscreen) receptors were cultured in Dulbecco's Modified Eagle's Medium (DMEM) containing 10% Fetal Calf Serum (FCS), 100 U/ml penicillin, 0.1 mg/ml streptomycin, 0.25 μg/ml amphotericin B, 1% Minimum Essential Medium Eagle (MEM), non essential amino acid solution, 600 μg/ml G418. Cells were kept at 37° C. in a humidified incubator in an atmosphere of 5% CO2/95% air and were passaged 1:4 three times a week. Cells were plated at 1.5−2.5×10^4 cell/well on standard 96-well microplates, measurements of cytosolic calcium ion concentration ([Ca^2+]i) were carried out 1-2 days after cell plating.
Measurements of [Ca^2+]i were carried out on CHO-B1 cells stably expressing human B1 receptors, respectively. Cells were grown in standard 96-well microplates and before the measurement were loaded with a fluorescent Ca^2+-sensitive dye, fluo-4/AM (2 μM): after removing the culture medium the dye was added to the cells (dissolved in assay buffer: 145 mM NaCl, 5 mM KCl, 2 mM MgCl2, 2 mM CaCl2, 10 mM HEPES, 20 mM D-glucose, 2 mM probenecid, 100 μl/well) and cells were incubated at 37° C. in a humidified incubator in an atmosphere of 5% CO2/95% air for 40-120 min. To stop dye loading cells were washed twice with assay buffer. After washing, various concentrations of the test compounds (diluted in extracellular medium from a DMSO stock solution, final DMSO concentration was <0.1%) or buffer were added to each well depending on the experimental setup. After incubation at 37° C. for 20-25 min. baseline and agonist-evoked changes of [Ca^2+]; were measured column by column with a plate reader fluorimeter (Fluoroskan Ascent, Labsystems). Excitation and detection of emission was carried out from the bottom of the plate. Filters used for Fluo-4: excitation filter 485 nm, emission filter 538 nm. The whole measurement process was performed at 37° C. and was controlled by custom software. Inhibitory potency of the test compounds was assessed by measuring the reduction in the agonist-evoked [Ca^2+]i-elevation in the presence of different concentrations of the compounds. The agonist was LysDABK for CHO-B1 cells. Agonist was applied at an EC80 concentration; the EC80-values were derived from daily determined dose-response curves. Fluorescence data were expressed as ΔF/F (fluorescence change normalized to baseline). All treatments on a single plate were measured in multiple wells. Data from all wells with the same treatment were averaged and the average values were used for analysis. Inhibitory potency of a compound at a single concentration point was expressed as percent inhibition of the control agonist response. Sigmoidal concentration-inhibition curves were fitted to the data (derived from at least three independent experiments) and IC50-values were determined as the concentration that produces half of the maximal inhibition caused by the compound.

The target of test [2] is T2, human recombinant bradykinin B1 receptor (Homo sapiens, UniProt P46663).
T2 construct: host or cells: CHO cells, clone hB1-A5
T2 sequence (P46663 1-353): T1 sequence (P46663 1-353)
Nature of the test: Human recombinant bradykinin B1 receptor competitive radioligand binding. The conditions noted are these: hB1 expressed in CHO cells, [3H]-[Des-Arg10] Kallidin radioligand; read-out: B1 binding. The procedure: Assessment of Ligand Binding Affinity to B1 and B2 Receptors In Vitro by Competitive Radioligand Binding Assay
Binding assays were carried out on human recombinant bradykinin) receptors (expressed in CHO cells, hB1-A5) according to the Euroscreen Technical Data Sheet (Cat.No.:ES-091). 20 μg protein/tube was incubated with [3,4-prolyl-3,4-^3H(N)]-[Des-Arg^10] Kallidin as radioligand. Non specific binding was determined in the presence of 10 μM Lys-des-Arg^9-Bradykinin. The final incubation volume was 250 μl. Samples were incubated for 15 min. at 25° C. then were rapidly vacuum filtered through GF/B filters presoaked for at least 1 h in 0.5% PEI. Radioactivity was determined by liquid scintillation spectroscopy.
The ligand displacement by the compounds was determined using a minimum of seven concentrations in triplicate, and experiments were repeated at least two times. The specific radioligand binding is defined as the difference between total binding and the non-specific binding determined in the presence of an excess of unlabelled ligand. Results are expressed as a percent inhibition of specific binding obtained in the presence of RGH-478 or reference drugs. IC50 values (i.e. concentration of compound giving 50% inhibition of specific binding) were calculated from concentration-displacement curves by sigmoidal fitting using GraphPad Prism Software 4.0. Ki values (i.e. inhibition constants) were calculated using the Cheng-Prusoff equation. KD was determined from the Scatchard plot. (Editor-in-chief: Enna, S. J. and Williams, M. Current protocols in pharmacology vol. 1. John Wiley & sons Inc., 1998)

SMILES strings stand for the structures. A value given as a limit tells only on which side of the number the result lay.

Turning to `Cc1nc(-c2c(Cl)c3cc(F)ccc3n2-c2ccc(CNC(=O)C3(NC(=O)c4ccnc(F)c4)CC3)cc2)no1` [Example 89, N-(1-{4-[3-Chloro-5-fluoro-2-(5-methyl-[1,2,4]oxadiazol-3-yl)-indol-1-yl]-benzylcarbamoyl}-cyclopropyl)-2-fluoro-isonicotinamide], the IC50 in test [1] was below 0.02 µM. For the same molecule, in test [2], the Ki is below 0.02 µM.
For the molecule `Cc1nc(-c2c(Cl)c3ccccc3n2-c2ccc(CNC(=O)C3(NC(=O)c4cc(C5CC5)on4)CC3)cc2)no1` [Example 165, 5-Cyclopropyl-isoxazole-3-carboxylic acid (1-{4-[3-chloro-2-(5-methyl-[1,2,4]oxadiazol-3-yl)-indol-1-yl]-benzylcarbamoyl}-cyclopropyl)-amide], in test [1], the IC50 was below 0.02 µM. For the same molecule, in test [2], the Ki is below 0.02 µM.
For the molecule `Cc1nc(-c2c(Cl)c3ccccc3n2-c2ccc(CNC(=O)C3(NC(=O)c4cccnc4C)CC3)cc2)no1` [Example 155, N-(1-{4-[3-Chloro-2-(5-methyl-[1,2,4]oxadiazol-3-yl)-indol-1-yl]-benzylcarbamoyl}-cyclopropyl)-2-methyl-nicotinamide], the IC50 in test [1] lay within 0.02 to 0.1 µM. The Ki in test [2] is 0.02 to 0.1 µM.
Regarding `Cc1nc(-c2c(Cl)c3ccccc3n2-c2ccc(CNC(=O)C3(NC(=O)c4ccsc4)CC3)cc2)no1` [Example 167, Thiophene-3-carboxylic acid (1-{4-[3-chloro-2-(5-methyl-[1,2,4]oxadiazol-3-yl)-indol-1-yl]-benzylcarbamoyl}-cyclopropyl)-amide], the IC50 in test [1] lay within 0.02 to 0.1 µM. Moreover, in test [2], the Ki is 0.02 to 0.1 µM.
Take `Cc1nc(-c2c(Cl)c3ccccc3n2-c2ccc(CNC(=O)C3(NC(=O)c4ccoc4)CC3)cc2)no1` [Example 137, Furan-3-carboxylic acid (1-{4-[3-chloro-2-(5-methyl-[1,2,4]oxadiazol-3-yl)-indol-1-yl]-benzylcarbamoyl}-cyclopropyl)-amide]: the IC50 in test [1] is below 0.02 µM. Moreover, the Ki in test [2] is below 0.02 µM.
As to `Cc1nc(-c2cc3cc(F)ccc3n2-c2ccc(CNC(=O)C3(NC(=O)c4cncc(C(F)(F)F)c4)CC3)cc2)no1` [Example 46, N-(1-{4-[5-Fluoro-2-(5-methyl-[1,2,4]oxadiazol-3-yl)-indol-1-yl]-benzylcarbamoyl}-cyclopropyl)-5-trifluoromethyl-nicotinamide], the IC50 in test [1] is below 0.02 µM. Moreover, the Ki in test [2] is below 0.02 µM.
Consider `COc1ccc2c(c1)cc(-c1nnc(C)o1)n2-c1ccc(CNC(=O)C2(NC(=O)c3cncc(C(F)(F)F)c3)CC2)cc1` [Example 125, N-(1-{4-[5-Methoxy-2-(5-methyl-[1,3,4]oxadiazol-2-yl)-indol-1-yl]-benzylcarbamoyl}-cyclopropyl)-5-trifluoromethyl-nicotinamide], for which the IC50 in test [1] is below 0.02 µM. In test [2], the Ki was below 0.02 µM.
As to `Cn1nnc(-c2c(Cl)c3ccccc3n2-c2ccc(CNC(=O)C3(NC(=O)c4cncc(C(F)(F)F)c4)CC3)cc2)n1` [Example 30, N-(1-{4-[3-chloro-2-(2-methyl-2H-tetrazol-5-yl)-indol-1-yl]-benzylcarbamoyl}-cyclopropyl)-5-trifluoromethyl-nicotinamide], the IC50 in test [1] was below 0.02 µM. Also, the Ki in test [2] is below 0.02 µM.
Consider `COC(=O)c1c(Cl)c2ccccc2n1-c1ccc(CNC(=O)C2(NC(=O)c3cc(OC)no3)CC2)c(F)c1` [Example 55, 3-Chloro-1-{3-fluoro-4-[({1-[(3-methoxy-isoxazole-5-carbonyl)-amino]-cyclo-propanecarbonyl}-amino)-methyl]-phenyl}-1H-indole-2-carboxylic acid methyl ester], for which the IC50 in test [1] was below 0.02 µM. Also, the Ki in test [2] was below 0.02 µM.
As for `Cc1nc(-c2c(Cl)c3ccccc3n2-c2ccc(CNC(=O)C3(NC(=O)c4ccno4)CC3)cc2)no1` [Example 134, Isoxazole-5-carboxylic acid (1-{4-[3-chloro-2-(5-methyl-[1,2,4]oxadiazol-3-yl)-indol-1-yl]-benzylcarbamoyl}-cyclopropyl)-amide], the IC50 in test [1] is below 0.02 µM. Further, the Ki in test [2] is below 0.02 µM.
As for `Cc1ccc(C(=O)NC2(C(=O)NCc3ccc(-n4c(-c5noc(C)n5)c(Cl)c5ccccc54)cc3)CC2)cn1` [Example 154, N-(1-{4-[3-Chloro-2-(5-methyl-[1,2,4]oxadiazol-3-yl)-indol-1-yl]-benzylcarbamoyl}-cyclopropyl)-6-methyl-nicotinamide], in test [1], the IC50 is below 0.02 µM. Moreover, the Ki in test [2] is below 0.02 µM.
With `COc1ccc2c(c1)cc(C#N)n2-c1ccc(CNC(=O)C2(NC(=O)c3cc(OC)no3)CC2)cc1` [Example 48, 3-Methoxy-isoxazole-5-carboxylic acid {1-[4-(2-cyano-5-methoxy-indol-1-yl)-benzylcarbamoyl]-cyclopropyl}-amide], in test [1], the IC50 is below 0.02 µM. Besides, the Ki in test [2] was below 0.02 µM.
Take `Cc1nc(-c2c(Cl)c3ccccc3n2-c2ccc(CNC(=O)C3(NC(=O)c4cccnc4F)CC3)cc2)no1` [Example 95, N-(1-{4-[3-Chloro-2-(5-methyl-[1,2,4]oxadiazol-3-yl)-indol-1-yl]-benzylcarbamoyl}-cyclopropyl)-2-fluoro-nicotinamide]: the IC50 in test [1] is below 0.02 µM. The Ki in test [2] was below 0.02 µM.
`Cc1noc(-c2c(Cl)c3ccccc3n2-c2ccc(CNC(=O)C3(NC(=O)CC(F)(F)F)CC3)cc2)n1` [Example 112, 1-(3,3,3-Trifluoro-propionylamino)-cyclopropanecarboxylic acid 4-[3-chloro-2-(3-methyl-[1,2,4]oxadiazol-5-yl)-indol-1-yl]-benzylamide]: the IC50 in test [1] was below 0.02 µM. Besides, in test [2], the Ki was below 0.02 µM.
For the molecule `COc1cc(C(=O)NC2(C(=O)NCc3ccc(-n4c(-c5noc(C)n5)c(F)c5cc(F)ccc54)cc3)CC2)on1` [Example 198, 3-Methoxy-isoxazole-5-carboxylic acid (1-{4-[3,5-difluoro-2-(5-methyl-[1,2,4]oxadiazol-3-yl)-indol-1-yl]-benzylcarbamoyl}-cyclopropyl)-amide], the IC50 in test [1] is below 0.02 µM. Also, the Ki in test [2] was below 0.02 µM.
With `COc1cc(C(=O)NC2(C(=O)NCc3ccc(-n4c(-c5noc(C)n5)cc5ccccc54)cn3)CC2)on1` [Example 57, 3-Methoxy-isoxazole-5-carboxylic acid [1-({5-[2-(5-methyl-[1,2,4]oxadiazol-3-yl)-indol-1-yl]-pyridin-2-ylmethyl}-carbamoyl)-cyclopropyl]-amide], the IC50 in test [1] was in the range of 0.02 to 0.1 µM. Besides, the Ki in test [2] lay in the range of 0.02 to 0.1 µM.

The values are drawn from patent publication US20130217702A1 (Richter Gedeon Nyrt., priority 2010, published 2013).
